Marks after values point to notes of the source that are not given here.
Tests used:
A431 xenograft tumors [1] = experiment: A431 xenograft tumor growth, Cetuximab and cisplatin combination; assay type: in vivo, male nude mice; details: day 14
Experimental: Specifically, the test article(s) were administered on days 0, 4, 7, 11, and 14.
Tumor growth, measured as tumor volume (mm^3), was determined on days—1, 4, 7, 11 and 14 using digital calipers and calculation as described in Example 8. Tumor growth inhibition (TGI) for the treatment groups was calculated using the formula: % TGI=[1−(TB−TA)/(CB−CA)]×100; where TB is the average tumor volume (mm^3) in the treatment group at day 14, TA is the average tumor volume (mm^3) in the treatment group the day before the first treatment (day—1), CB is the average tumor volume in the vehicle only control group at day 14, and CA is the average tumor volume in the vehicle only control group the day before the first treatment (day—1) (see, e.g., Teicher B A and Andrews P A: Anticancer Drug Development, Guide: Preclinical Screening, Clinical Trials and Approval, 2nd edition.

A431 xenograft tumors [2] = experiment: A431 xenograft tumor growth, Cetuximab vs. HC-Y104D and cisplatin; assay type: in vivo, male nude mice; details: 5 mg/kg cisplatin IV twice per week, day 14
Experimental: Subcutaneous A431 xenograft tumors were established in male nude mice as described above. […] Specifically, the test article(s) were administered on days 0, 4, 7 and 11. Tumor volume (mm^3) was determined on days—1, 4, 7, 11 and 14 as described previously.

For `N.N.[Cl][Pt][Cl]` [cisplatin], the “tumor growth inhibition (TGI)” value (A431 xenograft tumors [1]; 5 mg/kg cisplatin alone) was 34.2%, the “% Tumor Growth Inhibition” value (A431 xenograft tumors [1]; Cisplatin 5 mg/kg ([…]) IV twice per week) was 34.2* % and the “% Tumor Growth Inhibition” value (A431 xenograft tumors [1]; Cisplatin […] (0.04 mg/mouse) IV twice per week) was 16.7%. The “reduction in tumor growth” value (A431 xenograft tumors [2]) was “about 45%”.

Reference: patent publication US20140170159A9, “Conditionally active anti-epidermal growth factor receptor antibodies and methods of use thereof” (priority 2012, published 2014)
